Measurements from PubChem BioAssay (NCI).
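Here, GI50 denotes the concentration required for 50% inhibition of growth. TGI is the concentration that stops growth completely.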

Legend:
Experiment in all cases: NCI anticancer screen, dose series, 384-well format
HL-60(TB) leukemia = system: HL-60(TB) leukemia
OVCAR-3 ovarian = system: OVCAR-3 ovarian
RXF 393 renal = system: RXF 393 renal
NCI-H226 lung = system: NCI-H226 lung
BT-549 breast = system: BT-549 breast
SW-620 colon = system: SW-620 colon
NCI-H23 lung = system: NCI-H23 lung
SNB-19 CNS = system: SNB-19 CNS
A498 renal = system: A498 renal
CCRF-CEM leukemia = system: CCRF-CEM leukemia
MDA-MB-231 breast = system: MDA-MB-231 breast
DU-145 prostate = system: DU-145 prostate
NCI/ADR-RES ovarian = system: NCI/ADR-RES ovarian
EKVX NSCLC = system: EKVX NSCLC
HCT-15 colon = system: HCT-15 colon
SK-MEL-5 melanoma = system: SK-MEL-5 melanoma
HT29 colon = system: HT29 colon
OVCAR-5 ovarian = system: OVCAR-5 ovarian
RPMI-8226 leukemia = system: RPMI-8226 leukemia
SK-MEL-28 melanoma = system: SK-MEL-28 melanoma
SK-OV-3 ovarian = system: SK-OV-3 ovarian
M14 melanoma = system: M14 melanoma
HCT-116 colon = system: HCT-116 colon
K-562 leukemia = system: K-562 leukemia
HCC-2998 colon = system: HCC-2998 colon
MOLT-4 leukemia = system: MOLT-4 leukemia
T-47D breast = system: T-47D breast
NCI-H460 NSCLC = system: NCI-H460 NSCLC
KM12 colon = system: KM12 colon
LOX IMVI melanoma = system: LOX IMVI melanoma
SF-539 CNS = system: SF-539 CNS
NCI-H322M lung = system: NCI-H322M lung
UO-31 renal = system: UO-31 renal
CAKI-1 renal = system: CAKI-1 renal
786-0 renal = system: 786-0 renal
MCF7 breast = system: MCF7 breast
HOP-62 NSCLC = system: HOP-62 NSCLC
SR leukemia = system: SR leukemia
UACC-62 melanoma = system: UACC-62 melanoma
MDA-MB-468 breast = system: MDA-MB-468 breast
SF-295 CNS = system: SF-295 CNS
PC-3 prostate = system: PC-3 prostate
MDA-MB-435 melanoma = system: MDA-MB-435 melanoma
NCI-H522 lung = system: NCI-H522 lung
ACHN renal = system: ACHN renal
A549 NSCLC = system: A549 NSCLC
TK-10 renal = system: TK-10 renal

Compound `N#Cc1c(N)nc(N)nc1N[C@H](c1nc2c(F)ccc(Cl)c2c(=O)n1-c1cccnc1)C1CC1` has a GI50 (HL-60(TB) leukemia) of 1.13 µM, a TGI (HL-60(TB) leukemia) of 7.85 µM and a GI50 (OVCAR-3 ovarian) of 0.728 µM. For the same compound, the TGI (OVCAR-3 ovarian) was 6.73 µM, the GI50 (RXF 393 renal) was 0.2 µM and the TGI (RXF 393 renal) was 0.936 µM. For the same compound, the GI50 (NCI-H226 lung) was 15.6 µM, the TGI (NCI-H226 lung) was > 57.7 µM and the GI50 (BT-549 breast) was 0.711 µM. The TGI (BT-549 breast) was 12.9 µM, the GI50 (SW-620 colon) was 11.9 µM and the TGI (SW-620 colon) was 36.3 µM. For the same compound, the GI50 (NCI-H23 lung) was 15.3 µM, the TGI (NCI-H23 lung) was 54.8 µM and the GI50 (SNB-19 CNS) was 15 µM. It also gave a TGI (SNB-19 CNS) of 31.8 µM, a GI50 (A498 renal) of 0.445 µM and a TGI (A498 renal) of 3.11 µM. For the same compound, the GI50 (CCRF-CEM leukemia) was 1.42 µM, the TGI (CCRF-CEM leukemia) was 10.6 µM and the GI50 (MDA-MB-231 breast) was 9.59 µM. For the same compound, the TGI (MDA-MB-231 breast) was 34.2 µM, the GI50 (DU-145 prostate) was 13.4 µM and the TGI (DU-145 prostate) was > 85.1 µM. The GI50 (NCI/ADR-RES ovarian) was 34.2 µM, the TGI (NCI/ADR-RES ovarian) was > 100 µM and the GI50 (EKVX NSCLC) was 2.63 µM. It also gave a TGI (EKVX NSCLC) of 17.6 µM, a GI50 (HCT-15 colon) of 16.1 µM and a TGI (HCT-15 colon) of 44.9 µM. The GI50 (SK-MEL-5 melanoma) was 12.6 µM, the TGI (SK-MEL-5 melanoma) was 34.3 µM and the GI50 (HT29 colon) was 13.4 µM. It also gave a TGI (HT29 colon) of 42 µM, a GI50 (OVCAR-5 ovarian) of 9.12 µM and a TGI (OVCAR-5 ovarian) of 43.1 µM. It also gave a GI50 (RPMI-8226 leukemia) of 3.36 µM, a TGI (RPMI-8226 leukemia) of 10.3 µM and a GI50 (SK-MEL-28 melanoma) of 3.88 µM. For the same compound, the TGI (SK-MEL-28 melanoma) was > 100 µM, the GI50 (SK-OV-3 ovarian) was 4.36 µM and the TGI (SK-OV-3 ovarian) was 37.5 µM. The GI50 (M14 melanoma) was 79 µM, the TGI (M14 melanoma) was > 100 µM and the GI50 (HCT-116 colon) was 16.1 µM. The TGI (HCT-116 colon) was 35.9 µM, the GI50 (K-562 leukemia) was 17.8 µM and the TGI (K-562 leukemia) was 38.1 µM. For the same compound, the GI50 (HCC-2998 colon) was 11 µM, the TGI (HCC-2998 colon) was 24.5 µM and the GI50 (MOLT-4 leukemia) was 1.54 µM. It also gave a TGI (MOLT-4 leukemia) of 3.94 µM, a GI50 (T-47D breast) of 1.02 µM and a TGI (T-47D breast) of 5.99 µM. The GI50 (NCI-H460 NSCLC) was 5.48 µM, the TGI (NCI-H460 NSCLC) was > 100 µM and the GI50 (KM12 colon) was 17.8 µM. For the same compound, the TGI (KM12 colon) was 52.3 µM, the GI50 (LOX IMVI melanoma) was 5.13 µM and the TGI (LOX IMVI melanoma) was 18.6 µM. For the same compound, the GI50 (SF-539 CNS) was 5.96 µM, the TGI (SF-539 CNS) was 44.5 µM and the GI50 (NCI-H322M lung) was 14.9 µM. The TGI (NCI-H322M lung) was > 80.1 µM, the GI50 (UO-31 renal) was 2.64 µM and the TGI (UO-31 renal) was 8.87 µM. For the same compound, the GI50 (CAKI-1 renal) was 2.3 µM, the TGI (CAKI-1 renal) was > 100 µM and the GI50 ([…]-0 renal) was 3.51 µM. For the same compound, the TGI (786-0 renal) was 24.4 µM, the GI50 (MCF7 breast) was 2.73 µM and the TGI (MCF7 breast) was > 100 µM. For the same compound, the GI50 (HOP-62 NSCLC) was 17.9 µM, the TGI (HOP-62 NSCLC) was > 65.3 µM and the GI50 (SR leukemia) was 10.5 µM. For the same compound, the TGI (SR leukemia) was 22.5 µM, the GI50 (UACC-62 melanoma) was 3.23 µM and the TGI (UACC-62 melanoma) was 58.9 µM. It also gave a GI50 (MDA-MB-468 breast) of 0.912 µM, a TGI (MDA-MB-468 breast) of 5.94 µM and a GI50 (SF-295 CNS) of 2.37 µM. The TGI (SF-295 CNS) was 18.4 µM, the GI50 (PC-3 prostate) was 1.08 µM and the TGI (PC-3 prostate) was 14 µM. For the same compound, the GI50 (MDA-MB-435 melanoma) was 35.4 µM, the TGI (MDA-MB-435 melanoma) was > 100 µM and the GI50 (NCI-H522 lung) was 16.9 µM. For the same compound, the TGI (NCI-H522 lung) was 48.5 µM, the GI50 (ACHN renal) was 7.04 µM and the TGI (ACHN renal) was > 100 µM. It also gave a GI50 (A549 NSCLC) of 9.47 µM, a TGI (A549 NSCLC) of 30.1 µM and a GI50 (TK-10 renal) of 4.55 µM. It also gave a TGI (TK-10 renal) of 29.1 µM.
